Measured values reported in US20250034168A1, “NITROGEN-CONTAINING HETEROCYCLIC DERIVATIVE PARP INHIBITOR AND USE THEREOF” (XIZANG HAISCO PHARMACEUTICAL CO., LTD., priority 2021, published 2025).

How the values were obtained:
PARP2 = PARP2 (Homo sapiens (Human), UniProt Q9UGN5); assay: PARP2 enzyme activity test; format: biochemical
Description: PARP2 and PARP7 chemical […] detection kits were both purchased from BPS Bioscience. The histone solution in the kit was diluted 5× with 1×PBS, and 25 μL of the diluted histone solution was added to a microwell plate and incubated overnight at 4° C. After the incubation, the plate was washed three times with PBST (0.05% Tween-20). 100 μL of the blocking solution was added to the microwell plate and incubated at 25° C. for 90 minutes. After the incubation, the plate was washed three times with PBST. 2.5 μL of compound 4 diluted in test buffer and 5 μL of substrate mixed solution were added to the microwell plate. 5 μL of the diluted PARP enzyme was added to the microwell plate, and the reaction system was incubated at 25° C. for 60 minutes.
After the incubation, the plate was washed three times with PBST. Streptavidin-HRP was diluted 50× with a blocking solution, and 25 μL of the diluent was added to the microwell plate and incubated at 25° C. for 30 minutes. After the incubation, the plate was washed three times with PBST. ELISA ECL substrate A and substrate B were mixed at a ratio of 1:1 (v/v), 25 μL of the mixture was added to the microwell plate, and the chemiluminescence value was read. […]

[1] = Pharmacokinetic test in mice; format: in vivo, ICR mice
Description: • 5.2.1 Experimental animals: male ICR mice, 20-25 g, 18 mice/compound. purchased from Chengdu Ddossy Experimental Animals Co., Ltd. • 5.2.2 Experimental design: on the day of the test, 18 ICR mice were randomly grouped according to their body weights. the animals were fasted with water available for 12 to 14 h one day before the administration, and were fed 4 h after the administration.
Before and after the administration, 0.06 mL of blood was taken from the orbit of the animals under isoflurane anesthesia and placed in an EDTAK2 centrifuge tube. The blood was centrifuged at 5000 rpm and 4° C. for 10 min to collect plasma. The blood collection time points for the intravenous group and intragastric administration group were: 0 min, 5 min, 15 min, 30 min, 1 h, 2 h, 4 h, 6 h, 8 h, and 24 h. Before analysis and detection, all samples were stored at −80° C., and a quantitative analysis of samples was performed using LC-MS/MS.

MDA-MB-436 cells = assay: MDA-MB-436 cell activity test; format: cell-based; details: Homo sapiens
Description: Breast tumor cells MDA-MB-436 were purchased from ATCC, the culture medium was Leibovitz's L-15+10% FBS, and the cells were cultured in a CO2-free incubator at 37° C. On day 1, the cells in the exponential growth phase were collected, and the cell suspension was adjusted to 4000 cells/135 μL with the culture medium. 135 μL of the cell suspension was added to each well of a 96-well cell culture plate and incubated overnight. On day 2, compounds at different concentrations were added, and the plate was placed in the incubator and incubated for 7 days. After the incubation was completed, according to operation instructions for a CellTiter-Glo kit (Promega, G7573), 75 μL of CTG solution, which was already pre-melted and equilibrated to room temperature, was added to each well, and the mixture was uniformly mixed for 2 min using a microplate shaker. The plate was placed at room temperature for 10 min, and then […] were measured using an Envision2104 plate reader (PerkinElmer). The inhibition rate was calculated using formula (1), where RLUcompound was the readout of the drug treated group, RLUcontrol was the average value of the vehicle control group, and RLUblank was the average value of the cell-free well. The IC50 value was calculated using GraphPad Prism software.

MDA-MB-231 cells = assay: MDA-MB-231 cell proliferation inhibition test; format: cell-based; details: Homo sapiens
Description: Human breast cancer MDA-MB-231 cells purchased from ATCC were placed in complete DMEM medium (supplemented with 10% fetal bovine serum and 1% double antibody) and cultured at 37° C. and 5% CO2. The cells in the exponential growth phase were collected, and the cell suspension was adjusted to 1500 cells/135 μL with the culture medium. 135 μL of the cell suspension was added to each well of a 96-well cell culture plate and incubated overnight. On day 2, compounds at different concentrations were added, and the plate was placed in the incubator and incubated for 7 days. After the incubation was completed, according to operation instructions for a CellTiter-Glo kit (Promega, Cat #G7573), 75 μL of CTG solution, which was already pre-melted and equilibrated to room temperature, was added to each well, and the mixture was uniformly mixed for 2 min using a microplate shaker. The plate was placed at room temperature for 10 min, and then […] signal values were measured using an Envision 2104 plate reader (PerkinElmer). The cell proliferation inhibition rate was calculated according to the formula [(1−(RLUcompound−RLUblank)/(RLUcontrol−RLUblank))×100%]. The IC50 value was obtained by four-parameter nonlinear fitting using GraphPad Prism software.

[2] = male, ICR, iv, mouse plasma, i.v. 2.5 mg/kg

Chain of PARP2 (Q9UGN5 whole entry): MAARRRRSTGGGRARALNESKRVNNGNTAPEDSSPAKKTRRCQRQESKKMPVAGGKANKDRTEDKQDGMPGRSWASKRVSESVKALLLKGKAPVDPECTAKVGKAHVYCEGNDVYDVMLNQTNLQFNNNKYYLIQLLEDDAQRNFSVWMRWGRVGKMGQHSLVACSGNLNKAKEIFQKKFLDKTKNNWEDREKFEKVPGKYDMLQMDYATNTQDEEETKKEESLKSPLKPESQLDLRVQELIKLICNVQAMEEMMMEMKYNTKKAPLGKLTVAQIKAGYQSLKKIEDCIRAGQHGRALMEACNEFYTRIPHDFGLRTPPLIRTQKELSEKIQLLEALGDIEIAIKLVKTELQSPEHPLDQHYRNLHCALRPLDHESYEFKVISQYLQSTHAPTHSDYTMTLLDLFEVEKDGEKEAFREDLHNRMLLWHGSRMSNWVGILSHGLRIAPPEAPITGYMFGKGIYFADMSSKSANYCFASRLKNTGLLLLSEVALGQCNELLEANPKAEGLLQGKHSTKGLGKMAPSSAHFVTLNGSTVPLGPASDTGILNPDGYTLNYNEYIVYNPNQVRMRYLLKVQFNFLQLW

## CCc1cc2ncc(CN3CC=C(c4ccc(C(=O)NC)nc4)CC3)cc2[nH]c1=O [Compound 14, 1′-((7-ethyl-6-oxo-5,6-dihydro-1,5-naphthyridin-3-yl)methyl)-N-methyl-1′,2′,3′,6′-tetrahydro-[3,4′-bipyridine]-6-carboxamide]
PARP2
  IC50: 31 nM
[1]; [2]
  AUC(0-t): 220 µg·h/mL
  clearance: 0.164 mL/min/kg
[1]; male, ICR, iv, mouse plasma, i.v. 2.5 mg/kg, read-out: Vdss
  Vd: 0.112 L/kg
[1]; male, ICR, po, mouse plasma, i.g. 10 mg/kg
  AUC(0-t): 829 µg·h/mL
[1]; mouse, i.g. 10 mg/kg
  F: 94.3%
MDA-MB-436 cells; MDA-MB-436, 168 h, 7 days incubation, CellTiter-Glo
  IC50: 3.2 nM
MDA-MB-436 cells; MDA-MB-436 cells, 10 μM, read-out: Max inh. % 10 μM
  inhibition at 10 µM: 89.1%
MDA-MB-231 cells; MDA-MB-231, 168 h, BRCA WT cells, 7 days incubation, CellTiter-Glo, read-out: MDA-MB-231 cell inhibitory activity IC50
  IC50: 21800 nM
MDA-MB-231 cells; MDA-MB-231 cells, 10 μM, read-out: Max inh. % 10 μM
  inhibition at 10 µM: 59.2%
